{"source": "patent US20220387344A1", "about": "“COMPOSITIONS AND METHODS FOR INHIBITING COLLAGEN LOSS” (LYCORED LTD., priority 2019, published 2022)", "key": {"NHDF cells": {"system": "NHDF cells", "test": "Collagen 1a1 secretion by NHDF cells under H2O2 oxidative stress (ELISA)", "type": "cell-based, human", "settings": "50 μM H2O2", "description": "Cells were incubated with Lumenato for 24 h and then hydrogen peroxide (H2O2) was added, and cells were incubated for additional 24 h to induce oxidative stress. The incubation medium was collected and the levels of collagen 1 a 1 protein secretion to the medium were analyzed using a specific ELISA detection kit."}, "[1]": {"system": "KERTr human keratinocytes", "test": "MMP1 secretion by KERTr keratinocytes under H2O2 oxidative stress (ELISA)", "type": "cell-based", "settings": "H2O2 alone", "description": "(§1) The inventors used hydrogen peroxide, H2O2, to induce oxidative stress in KERTr human keratinocytes, and analyzed the effects on cell number (cell death) and the secretion of MMP1. Cells viability was determined using the XTT cell proliferation kit, and MMP1 levels were measured by ELISA."}, "[2]": {"system": "KERTr human keratinocytes", "test": "Viability of KERTr keratinocytes under H2O2 oxidative stress (XTT)", "type": "cell-based", "settings": "H2O2 alone", "description": "as §1"}, "human neutrophils [3]": {"system": "human neutrophils", "test": "MPO activity of TNFα-activated neutrophils incubated overnight with single or combined phytonutrients", "type": "cell-based", "settings": "sole addition", "description": "100 μl of 37° C. O-dianisidine hydrochloride solution (1 mg O-dianisidine, 10 ml phosphate buffer pH 6.0+0.0015% H2O2) were added to 100 μl supernatant in a 96-well plate immediately before the optical density was followed by the change of absorbance at 450 nm at 2 minute intervals on a Thermomax Microplate Reader (Molecular Devices, Melno Park, Calif.).\nTocopherol and phytosterol were added to 5×10^5 human neutrophils 20 min before addition of 100 ng/ml TNFα and maintained overnight at 37° C. in a humidified atmosphere containing 5% CO2. MPO activity was measured in the supernatant of the cultured neutrophils.\nZeta carotene, phytoene, tocopherol, phytosterol, or combinations thereof, were added to 5×10^5 human neutrophils 20 min before addition of 100 ng/ml TNFα and maintained overnight at 37° C. in humidified atmosphere containing 5% CO2. MPO activity was measured as escribed above.\nThe inventors examined the effect of multiple phytonutrients on MPO activity in stimulated neutrophils. The sole addition of tocopherol or phytosterol had no effect on the release and activity of MPO from neutrophils activated with TNFα (FIGS. 13A-13B).\nThe inventors also examined the effect of adding zeta carotene with either phytoene, a tocopherol, or a phytosterol, on MPO activity. […]"}, "human neutrophils [4]": {"system": "human neutrophils", "test": "MMP-9 secretion from stimulated human neutrophils (ELISA)", "type": "cell-based", "settings": "agonist alone", "description": "(§2) Blood was drawn from healthy volunteers. Neutrophils, at 95% purity were obtained by Ficoll-Hypaque centrifugation, dextran sedimentation, and hypotonic lysis of erythrocytes within 1 hour after blood was drawn. Cells were counted and their viability was determined by trypan blue exclusion. Human MMP-9 concentrations in cell culture supernatants were quantified by ELISA kits (R&D systems Minneapolis, Minn., USA). […] Neutrophils were activated by 100 ng/ml TNFα or 100 ng/ml IL8 that are released from the skin cells during exposure to UV and activated. In addition, neutrophils were activated with […] for comparison."}, "human neutrophils [5]": {"system": "human neutrophils", "test": "MPO secretion from stimulated human neutrophils", "type": "cell-based", "settings": "agonist alone", "description": "as §2, with “100 μl of 37° C. O-dianisidine hydrochloride solution (1 mg O-dianisidine, 10 ml phosphate buffer pH 6.0+0.0015% H2O2) were added to 100 μl supernatant” for “Human MMP-9 concentrations”, “a 96-well plate immediately before the optical density was followed” for “cell culture supernatants were quantified”, “the change of absorbance at 450 nm at 2 minute intervals on a Thermomax Microplate Reader (Molecular Devices, Melno Park, Calif.).” for “ELISA kits (R&D systems Minneapolis, Minn., USA).”"}, "[6]": {"test": "Plasma carotenoids after Lumenato capsules (bioavailability)", "type": "in vivo", "settings": "delivered within Lumenato capsules, plasma at 1, 2, 3 and 4 weeks post administration", "source_text": "The inventors have examined the bioavailability of carotenoids delivered within Lumenato capsules. The following carotenoids were quantified in the plasma at 1 week, 2 weeks, 3 weeks, and 4 weeks post administration. Phytoene, phytofluene and zeta-carotene which are the main carotenoids in Lumenato (the golden tomato extract) were absorbed well (FIG. 15)."}, "[7]": {"settings": "2 hr of activation, TNFα or IL8 100 ng/ml"}}}
{"compound": "OO", "note": "[H2O2, hydrogen peroxide]", "values": [{"measurement": "reduction in collagen 1a1 secretion", "setting": "NHDF cells", "value": "about 10 fold"}, {"measurement": "secretion of MMP1", "setting": "[1]", "value": "increased secretion of MMP1"}, {"measurement": "cell number (cell death)", "setting": "[2]", "value": "dose dependent cell death"}]}
{"compound": "tocopherol", "values": [{"measurement": "effect on release and activity of MPO", "setting": "human neutrophils [3]", "value": "no effect"}]}
{"compound": "TNFα", "values": [{"measurement": "release of MMP-9", "setting": "human neutrophils [4]; [7]", "value": "16.52 ± 0.5", "unit": "ng/mL"}, {"measurement": "release of MPO", "setting": "human neutrophils [5]; 4 h of activation", "value": "0.28 ± 0.001", "unit": "ng/mL"}]}
{"compound": "formyl-Methionine-Leucine-Phenylalanine [fMLP]", "values": [{"measurement": "release of MMP-9", "setting": "human neutrophils [4]; 30 min of activation", "value": "10.41 ± 0.4", "unit": "ng/mL"}, {"measurement": "release of MMP-9", "setting": "human neutrophils [4]; 4 hr of activation", "value": "13.45 ± 0.3", "unit": "ng/mL"}, {"measurement": "release of MPO", "setting": "human neutrophils [5]; 30 min of activation", "value": "0.54 ± 0.004", "unit": "ng/mL"}]}
{"compound": "CC(C)=CCC/C(C)=C/CC/C(C)=C/C=C/C(C)=C/C=C/C=C(\\C)CC/C=C(\\C)CC/C=C(\\C)CCC=C(C)C", "note": "[phytofluene]", "values": [{"measurement": "absorption (plasma concentration)", "setting": "[6]", "value": "absorbed well"}]}
{"compound": "CC(C)=CCC/C(C)=C/CC\\C(C)=C/C=C/C(C)=C/C=C/C=C(C)/C=C/C=C(/C)CC/C=C(\\C)CCC=C(C)C", "note": "[zeta carotene]", "values": [{"measurement": "absorption (plasma concentration)", "setting": "[6]; listed as Zeta carotene", "value": "absorbed extremely well"}, {"measurement": "absorption (plasma concentration)", "setting": "[6]; listed as zeta-carotene", "value": "absorbed well"}]}
{"compound": "phytosterol", "values": [{"measurement": "effect on release and activity of MPO", "setting": "human neutrophils [3]", "value": "no effect"}]}
{"compound": "CC(C)=CCC/C(C)=C/CC/C(C)=C/CC/C(C)=C/C=C/C=C(\\C)CC/C=C(\\C)CC/C=C(\\C)CCC=C(C)C", "note": "[phytoene]", "values": [{"measurement": "absorption (plasma concentration)", "setting": "[6]", "value": "absorbed well"}]}
{"compound": "IL8: interleukin 8, agonist used to stimulate neutrophils", "values": [{"measurement": "release of MMP-9", "setting": "human neutrophils [4]; [7]", "value": "9.12 ± 0.2", "unit": "ng/mL"}, {"measurement": "release of MMP-9", "setting": "human neutrophils [4]; 4 hr of activation", "value": "17.86 ± 0.4", "unit": "ng/mL"}, {"measurement": "release of MPO", "setting": "human neutrophils [5]; 4 h of activation", "value": "0.4 ± 0.08", "unit": "ng/mL"}]}
